Among the data in US11020395B2, “Cycloalkyl substituted triazole compounds as agonists of the APJ receptor” (AMGEN INC., priority 2016, dated 2021) are EC50 values, retold here.

The target in this assay is human APJ receptor (Homo sapiens (Human), UniProt P35414). In words: [35S]GTPγS binding assay on membranes from CHO cells stably expressing human APJ receptor. Type of assay: biochemical. The note with it: [35S]GTPγS SPA, read-out: Activity hAPJ SPA EC50 IP. As for the experimental part: [^35S]GTPγS Binding The human APJ receptor was cloned by polymerase chain reaction and the gene encoding the receptor was subcloned in pFLAG-CMV™-3 expression vector (Sigma, Saint Louis, Mo. USA) in-house at Amgen. A GTPγS binding assay was performed on membranes prepared from CHO cells stably expressing human APJ receptor. The optimum experimental conditions for the concentrations of GDP, MgCl2, and NaCl in the assay buffer were initially determined. […] Incubation was at RT for 90 min and the microplate was read using a ViewLux™ ultra HTS Microplate Imager (PerkinElmer, Inc.). All the results presented are means of several independent experiments and analyzed by non-linear regression methods using the commercially available program Prism (GraphPad, San Diego, Calif.) providing the EC50 values detailed in Table 25.
Sequence of human APJ receptor (P35414 whole entry): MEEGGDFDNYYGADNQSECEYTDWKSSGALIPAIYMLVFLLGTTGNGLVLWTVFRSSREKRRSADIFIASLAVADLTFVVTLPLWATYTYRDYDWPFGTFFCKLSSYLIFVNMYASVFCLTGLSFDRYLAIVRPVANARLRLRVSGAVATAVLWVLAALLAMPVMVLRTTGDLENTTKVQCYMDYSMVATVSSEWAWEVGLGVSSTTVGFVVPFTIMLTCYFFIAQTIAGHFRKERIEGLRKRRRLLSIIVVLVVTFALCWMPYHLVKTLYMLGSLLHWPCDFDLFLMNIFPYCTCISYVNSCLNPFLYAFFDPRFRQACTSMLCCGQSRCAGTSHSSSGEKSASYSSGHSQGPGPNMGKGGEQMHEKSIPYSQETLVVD
Turning to `COCC(COC)n1c(NS(=O)(=O)[C@@H](C)[C@H](OC)c2ncc(Cl)cn2)nnc1[C@H]1C[C@H](CO)C1` (single isomer, unassigned) [Example 131.0, (1R,2S)-1-(5-chloropyrimidin-2-yl)-N-(4-(1,3-dimethoxypropan-2-yl)-5-((1r,3S)-3-(hydroxymethyl)cyclobutyl)-4H-1,2,4-triazol-3-yl)-1-methoxypropane-2-sulfonamide or (1R,2S)-1-(5-chloropyrimidin-2-yl)-N-(4-(1,3-dimethoxypropan-2-yl)-5-((1s,3R)-3-(hydroxymethyl)cyclobutyl)-4H-1,2,4-triazol-3-yl)-1-methoxypropane-2-sulfonamide], the EC50 amounted to 110 nM.

`COCC1(n2c(NS(=O)(=O)[C@@H](C)[C@H](OC)c3ncc(Cl)cn3)nnc2[C@H]2C[C@H](CO)C2)CC1` (single isomer, unassigned) [Example 132.0, (1R,2S)-1-(5-chloro-2-pyrimidinyl)-N-(5-(trans-3-(hydroxymethyl)cyclobutyl)-4-(1-(methoxymethyl)cyclopropyl)-4H-1,2,4-triazol-3-yl)-1-methoxy-2-propanesulfonamide or (1R,2S)-1-(5-chloro-2-pyrimidinyl)-N-(5-(cis-3-(hydroxymethyl)cyclobutyl)-4-(1-(methoxymethyl)cyclopropyl)-4H-1,2,4-triazol-3-yl)-1-methoxy-2-propanesulfonamide]: the EC50 was 1270 nM.

In the case of `COCC1(n2c(NS(=O)(=O)[C@@H](C)[C@H](OC)c3ncc(Cl)cn3)nnc2[C@H]2C[C@H](CO)C2)CC1` (single isomer, unassigned) [Example 133.0, (1R,2S)-1-(5-chloro-2-pyriminidyl)-N-(5-(trans-3-(hydroxymethyl)cyclobutyl)-4-(1-(methoxymethyl)cyclopropyl)-4H-1,2,4-triazol-3-yl)-1-methoxy-2-propanesulfonamide or (1R,2S)-1-(5-chloro-2-pyrimidinyl)-N-(5-(cis-3-(hydroxymethyl)cyclobutyl)-4-(1-(methoxymethyl)cyclopropyl)-4H-1,2,4-triazol-3-yl)-1-methoxy-2-propanesulfonamide], the EC50 is 120 nM.

`CO[C@H](c1ncc(Cl)cn1)[C@H](C)S(=O)(=O)Nc1nnc([C@H]2C[C@H](CO)C2)n1C1CC1` (single isomer, unassigned) [Example 134.0, (1R,2S)-1-(5-chloro-2-pyrimidinyl)-N-(4-cyclopropyl-5-(trans-3-(hydroxymethyl)cyclobutyl)-4H-1,2,4-triazol-3-yl)-1-methoxy-2-propanesulfonamide or (1R,2S)-1-(5-chloro-2-pyrimidinyl)-N-(4-cyclopropyl-5-(cis-3-(hydroxymethyl)cyclobutyl)-4H-1,2,4-triazol-3-yl)-1-methoxy-2-propanesulfonamide]: the EC50 came to 1330 nM.

With `CO[C@H](c1ncc(Cl)cn1)[C@H](C)S(=O)(=O)Nc1nnc([C@H]2C[C@H](CO)C2)n1C1CC1` (single isomer, unassigned) [Example 135.0, (1R,2S)-1-(5-chloro-2-pyrimidinyl)-N-(4-cyclopropyl-5-(trans-3-(hydroxymethyl)cyclobutyl)-4H-1,2,4-triazol-3-yl)-1-methoxy-2-propanesulfonamide or (1R,2S)-1-(5-chloro-2-pyrimidinyl)-N-(4-cyclopropyl-5-(cis-3-(hydroxymethyl)cyclobutyl)-4H-1,2,4-triazol-3-yl)-1-methoxy-2-propanesulfonamide], the EC50 came to 1810 nM.

For the compound `CO[C@H](c1ncc(Cl)cn1)[C@H](C)S(=O)(=O)Nc1nnc([C@H]2C[C@H](CO)C2)n1C(C)C` (single isomer, unassigned) [Example 136.0, (1R,2S)-1-(5-chloro-2-pyrimidinyl)-N-(5-trans-3-(hydroxymethyl)cyclobutyl)-4-(2-propanyl)-4H-1,2,4-triazol-3-yl)-1-methoxy-2-propanesulfonamide or (1R,2S)-1-(5-chloro-2-pyrimidinyl)-N-(5-(cis-3-(hydroxymethyl)cyclobutyl)-4-(2-propanyl)-4H-1,2,4-triazol-3-yl)-1-methoxy-2-propanesulfonamide], the EC50 is 3200 nM.

`CO[C@H](c1ncc(Cl)cn1)[C@H](C)S(=O)(=O)Nc1nnc([C@H]2C[C@H](CO)C2)n1C(C)C` (single isomer, unassigned) [Example 137.0, (1R,2S)-1-(5-chloro-2-pyrimidinyl)-N-(5-(trans-3-(hydroxymethyl)cyclobutyl)-4-(2-propanyl)-4H-1,2,4-triazol-3-yl)-1-methoxy-2-propanesulfonamide or (1R,2S)-1-(5-chloro-2-pyrimidinyl)-N-(5-(cis-3-(hydroxymethyl)cyclobutyl)-4-(2-propanyl)-4H-1,2,4-triazol-3-yl)-1-methoxy-2-propanesulfonamide]: the EC50 came to 340 nM.

For the compound `COc1ncnc(OC)c1-n1c(NS(=O)(=O)[C@@H](C)[C@H](OC)c2ncc(Cl)cn2)nnc1[C@H]1CC[C@@H](C(F)F)CC1` (single isomer, unassigned) [Example 144.0, (1R,2S)-1-(5-chloro-2-pyrimidinyl)-N-(5-(cis-4-(difluoromethyl)cyclohexyl)-4-(4,6-dimethoxy-5-pyrimidinyl)-4H-1,2,4-triazol-3-yl)-1-methoxy-2-propanesulfonamide or (1R,2S)-1-(5-chloro-2-pyrimidinyl)-N-(5-(trans-4-(difluoromethyl)cyclohexyl)-4-(4,6-dimethoxy-5-pyrimidinyl)-4H-1,2,4-triazol-3-yl)-1-methoxy-2-propanesulfonamide], the EC50 was found to be 620 nM.

Regarding `COc1ncnc(OC)c1-n1c(NS(=O)(=O)[C@@H](C)[C@H](OC)c2ncc(Cl)cn2)nnc1[C@H]1CC[C@@H](C(F)F)CC1` (single isomer, unassigned) [Example 145.0, (1R,2S)-1-(5-chloro-2-pyrimidinyl)-N-(5-(cis-4-(difluoromethyl)cyclohexyl)-4-(4,6-dimethoxy-5-pyrimidinyl)-4H-1,2,4-triazol-3-yl)-1-methoxy-2-propanesulfonamide or (1R,2S)-1-(5-chloro-2-pyrimidinyl)-N-(5-(trans-4-(difluoromethyl)cyclohexyl)-4-(4,6-dimethoxy-5-pyrimidinyl)-4H-1,2,4-triazol-3-yl)-1-methoxy-2-propanesulfonamide], the EC50 was found to be 4.8 nM.

Consider `COc1cccc(OC)c1-n1c(NS(=O)(=O)[C@@H](C)[C@H](OC)c2ncc(Cl)cn2)nnc1[C@H]1C[C@H](C(F)(F)F)C1` (single isomer, unassigned) [Example 149.0, (1R,2S)-1-(5-chloropyrimidin-2-yl)-N-(4-(2,6-dimethoxyphenyl)-5-((1r,3S)-3-(trifluoromethyl)cyclobutyl)-4H-1,2,4-triazol-3-yl)-1-methoxypropane-2-sulfonamide or (1R,2S)-1-(5-chloropyrimidin-2-yl)-N-(4-(2,6-dimethoxyphenyl)-5-((1s,3R)-3-(trifluoromethyl)cyclobutyl)-4H-1,2,4-triazol-3-yl)-1-methoxypropane-2-sulfonamide], for which the EC50 came to 4.2 nM.

As to `COc1cccc(OC)c1-n1c(NS(=O)(=O)[C@@H](C)[C@H](OC)c2ncc(Cl)cn2)nnc1[C@H]1C[C@H](C(F)(F)F)C1` (single isomer, unassigned) [Example 150.0, (1R,2S)-1-(5-chloropyrimidin-2-yl)-N-(4-(2,6-dimethoxyphenyl)-5-((1r,3S)-3-(trifluoromethyl)cyclobutyl)-4H-1,2,4-triazol-3-yl)-1-methoxypropane-2-sulfonamide or (1R,2S)-1-(5-chloropyrimidin-2-yl)-N-(4-(2,6-dimethoxyphenyl)-5-((1s,3R)-3-(trifluoromethyl)cyclobutyl)-4H-1,2,4-triazol-3-yl)-1-methoxypropane-2-sulfonamide], the EC50 worked out at 6.8 nM.

With `COc1cccc(OC)c1-n1c(NS(=O)(=O)[C@@H](C)[C@H](OC)c2ncc(Cl)cn2)nnc1[C@H]1C[C@H](F)C1` (single isomer, unassigned) [Example 151.0, (1R,2S)-1-(5-chloropyrimidin-2-yl)-N-(4-(2,6-dimethoxyphenyl)-5-((1r,3S)-3-fluorocyclobutyl)-4H-1,2,4-triazol-3-yl)-1-methoxypropane-2-sulfonamide or (1R,2S)-1-(5-chloropyrimidin-2-yl)-N-(4-(2,6-dimethoxyphenyl)-5-((1r,3R)-3-fluorocyclobutyl)-4H-1,2,4-triazol-3-yl)-1-methoxypropane-2-sulfonamide], the EC50 was 5.4 nM.

On to `COc1cccc(OC)c1-n1c(NS(=O)(=O)[C@@H](C)[C@H](OC)c2ncc(Cl)cn2)nnc1[C@H]1C[C@H](F)C1` (single isomer, unassigned) [Example 152.0, (1R,2S)-1-(5-chloropyrimidin-2-yl)-N-(4-(2,6-dimethoxyphenyl)-5-((1r,3S)-3-fluorocyclobutyl)-4H-1,2,4-triazol-3-yl)-1-methoxypropane-2-sulfonamide or (1R,2S)-1-(5-chloropyrimidin-2-yl)-N-(4-(2,6-dimethoxyphenyl)-5-((1s,3R)-3-fluorocyclobutyl)-4H-1,2,4-triazol-3-yl)-1-methoxypropane-2-sulfonamide], for which the EC50 is 4.2 nM.

With `COc1cccc(OC)c1-n1c(NS(=O)(=O)[C@@H](C)[C@H](OC)c2ncc(Cl)cn2)nnc1[C@H]1C[C@H](Cl)C1` (single isomer, unassigned) [Example 153.0, (1R,2S)-1-(5-chloropyrimidin-2-yl)-N-(4-(2,6-dimethoxyphenyl)-5-((1r,3S)-3-chlorocyclobutyl)-4H-1,2,4-triazol-3-yl)-1-methoxypropane-2-sulfonamide or (1R,2S)-1-(5-chloropyrimidin-2-yl)-N-(4-(2,6-dimethoxyphenyl)-5-((1s,3R)-3-chlorocyclobutyl)-4H-1,2,4-triazol-3-yl)-1-methoxypropane-2-sulfonamide], the EC50 was 1.5 nM.
